For eleven molecules, IC50 results are on record in patent US20140248263A1, “BISPHENOL COMPOUNDS AND METHODS FOR THEIR USE” (THE UNIVERSITY OF BRITISH COLUMBIA, priority 2011, published 2014).

The experiment concerns the target T1, androgen receptor (AR) (Homo sapiens, UniProt P10275, T878A).
T1 construct: LNCaP cells express endogenous AR; endogenous in cells; host or cells: LNCaP
T1 sequence (P10275 1-920 T878A): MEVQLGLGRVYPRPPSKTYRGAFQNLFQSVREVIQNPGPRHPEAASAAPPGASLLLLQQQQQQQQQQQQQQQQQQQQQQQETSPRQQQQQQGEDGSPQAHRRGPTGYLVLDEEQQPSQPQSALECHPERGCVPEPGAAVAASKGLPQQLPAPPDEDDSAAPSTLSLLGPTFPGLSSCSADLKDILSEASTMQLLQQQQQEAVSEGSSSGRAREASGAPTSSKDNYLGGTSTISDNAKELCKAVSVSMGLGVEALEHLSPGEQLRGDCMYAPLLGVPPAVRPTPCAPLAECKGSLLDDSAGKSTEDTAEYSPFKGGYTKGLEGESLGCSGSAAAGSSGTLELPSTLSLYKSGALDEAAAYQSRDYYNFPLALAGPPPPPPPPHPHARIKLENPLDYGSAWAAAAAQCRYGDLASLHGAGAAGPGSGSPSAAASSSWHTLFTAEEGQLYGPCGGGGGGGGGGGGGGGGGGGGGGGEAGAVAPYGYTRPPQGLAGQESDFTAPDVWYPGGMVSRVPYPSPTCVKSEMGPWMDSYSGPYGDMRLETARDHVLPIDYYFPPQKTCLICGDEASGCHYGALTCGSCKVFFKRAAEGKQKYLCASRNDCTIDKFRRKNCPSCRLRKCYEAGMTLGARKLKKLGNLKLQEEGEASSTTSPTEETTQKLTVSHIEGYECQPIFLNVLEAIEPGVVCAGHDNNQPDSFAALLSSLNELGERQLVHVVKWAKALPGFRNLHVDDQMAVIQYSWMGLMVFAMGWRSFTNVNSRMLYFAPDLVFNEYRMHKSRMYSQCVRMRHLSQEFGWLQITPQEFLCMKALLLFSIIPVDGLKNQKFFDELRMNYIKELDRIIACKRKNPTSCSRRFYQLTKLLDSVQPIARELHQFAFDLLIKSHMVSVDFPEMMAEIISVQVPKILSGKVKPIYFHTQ
The experiment in a line: PSA (6.1 kb)-luciferase reporter assay in LNCaP cells induced with R1881. It is filed as cell-based. Particulars: LNCaP cells transfected with PSA (6.1 kb)-luciferase; 1 h pre-treatment, R1881 1 nM, 48 h; relative luciferase activity. The text has this: LNCaP cells were employed initially for all experiments because they are well-differentiated human prostate cancer cells in which ligand-independent activation of the AR by FSK has been characterized (Nazareth et al 1996 J. Biol. Chem. 271, 19900-19907; and Sadar 1999 J. Biol. Chem. 274, 7777-7783). LNCaP cells express endogenous AR and secrete prostate-specific antigen (PSA) (Horoszewicz et al 1983Cancer Res. 43, 1809-1818). LNCaP cells can be grown either as monolayers in cell culture or as tumors in the well-characterized xenograft model that progresses to androgen independence in castrated hosts (Sato et al 1996 J. Steroid Biochem. Mol. Biol. 58, 139-146; Gleave et al 1991 Cancer Res. 51, 3753-3761; Sato et al 1997 Cancer Res. 57, 1584-1589; and Sadar et al 2002 Mol. Cancer. Ther. 1(8), 629-637). R1881 was employed since it is stable and avoids problems associated with the labile physiological ligand dihydrotestosterone (DHT). Reporter specificity may be determined using several alternative reporter gene constructs. Some well characterized ARE-driven reporter gene constructs that have been used extensively are the PSA (6.1 kb) enhance/promoter which contains several AREs and is highly inducible by androgens as well as by FSK (Ueda et al 2002 A J. Biol. Chem. 277, 7076-7085) and the ARR3-thymidine kinase (tk)-luciferase, which is an artificial reporter construct that contains three tandem repeats of the rat probasin ARE1 and ARE2 regions upstream of a luciferase reporter (Snoek et al 1996 J. Steroid Biochem. Mol. Biol. 59, 243-250).
LNCaP cells were transiently cotransfected with PSA (6.1 kb)-luciferase (0.25 μg/well) in 24-well plates for 24 h prior to pre-treatment with compounds for 1 hour before the addition of synthetic androgen, R1881 (1 nM), to induce PSA production or vehicle. The total amount of plasmid DNA transfected was normalized to 0.75 μg/well by the addition of the empty vector. After 48 h of incubation with R1881, the cells were harvested, and relative luciferase activity was determined. Test compounds were added to the cells at various concentrations and activity for each treatment was normalized to the predicted maximal activity induction (in the absence of test compounds, vehicle only). Plotting of sigmoidal curves (Boltzmann Function) and IC50 calculations were done using OriginPro 8.1 Sofware (Northampton, Mass., USA). Furthermore, toxicity was assessed by both microscopic examination and reduction of protein levels. Solubility was assessed both macroscopically (cloudy media) and microscopically (formation of granules or crystals).
Take `C#CCOCC(O)COc1ccc(C(C)(C)c2ccc(OCC(O)CO)cc2)cc1` (centres unmarked) [Compound 5, 3-(4-(2-(4-(2-hydroxy-3-(prop-2-ynyloxy)propoxy)phenyl)propan-2-yl)phenoxy)propane-1,2-diol]: the IC50 amounted to 4.5 µM. The value for `CCCCOCC(O)COc1ccc(C(C)(C)c2ccc(OCC(O)CCl)cc2)cc1` (centres unmarked) [Compound 34, 1-butoxy-3-(4-(2-(4-(3-chloro-2-hydroxypropoxy)phenyl)propan-2-yl)phenoxy)propan-2-ol] was 1.74 µM; that for `C#CCOC[C@H](O)COc1ccc(C(C)(C)c2ccc(OC[C@H](O)CCl)cc2)cc1` [Compound 12] was 2.2 µM; that for `COCC(O)COc1ccc(C(C)(C)c2ccc(OCC(O)CCl)cc2)cc1` (centres unmarked) [Compound 30, 1-chloro-3-(4-(2-(4-(2-hydroxy-3-methoxypropoxy)phenyl)propan-2-yl)phenoxy)propan-2-ol] was 11.5 µM. For `C#CCOC[C@@H](O)COc1ccc(C(C)(C)c2ccc(OC[C@@H](O)CCl)cc2)cc1` [Compound 18], the half-maximal inhibitory concentration (IC50) amounted to 1.3 µM. As to `CC(C)OCC(O)COc1ccc(C(C)(C)c2ccc(OCC(O)COC(C)C)cc2)cc1` (centres unmarked) [Compound 31, 3,3′-(4,4′-(propane-2,2-diyl)bis(4,1-phenylene))bis(oxy)bis(1-isopropoxypropan-2-ol)], the IC50 was 4.5 µM. For `C#CCOC[C@@H](O)COc1ccc(C(C)(C)c2ccc(OC[C@H](O)CCl)cc2)cc1` [Compound 16], the IC50 is 6.94 µM. The value for `CC(C)OCC(O)COc1ccc(C(C)(C)c2ccc(OCC(O)CCl)cc2)cc1` (centres unmarked) [Compound 32, 1-chloro-3-(4-(2-(4-(2-hydroxy-3-isopropdxypropoxy)phenyl)propan-2-yl)phenoxy)propan-2-ol] was 4.5 µM; that for `CCCCOCC(O)COc1ccc(C(C)(C)c2ccc(OCC(O)COCCCC)cc2)cc1` (centres unmarked) [Compound 33, 3,3′-(4,4′-(propane-2,2-diyl)bis(4,1-phenylene))bis(oxy)bis(1-butoxypropan-2-ol)] was 0.7 µM. With `C#CCOC[C@H](O)COc1ccc(C(C)(C)c2ccc(OC[C@@H](O)CCl)cc2)cc1` [Compound 10, (R)-1-chloro-3-(4-(2-(4-((S)-2-hydroxy-3-(prop-2-ynyloxy)propoxy)phenyl)propan-2-yl)phenoxy)propan-2-ol], the 50% inhibitory concentration (IC50) came to 2.2 µM. Consider `C#CCOCC(O)COc1ccc(C(C)(C)c2ccc(OCC(O)CCl)cc2)cc1` (centres unmarked) [Compound 3, 1-chloro-3-(4-(2-(4-(2-hydroxy-3-(prop-2-ynyloxy)propoxy)phenyl)propan-2-YL)phenoxy)propan-2-ol], for which the IC50 was 1.6 µM.
